Measured values taken from patent publication US20110098296A1, “Thiazole And Oxazole Kinase Inhibitors” (priority 2007, published 2011).
Structures can show the parent of a compound that is named as a salt.

Columns and labels:
BT474 tumor cells = assay: Method C: Cell Growth Inhibition Assay (CellTiter-Glo), BT474; type: cell-based; conditions: Homo sapiens, BT-474, 72 h, 3 days, 4-parameter fit
Experimental: (§1) Human breast tumor cells (BT474) were cultured in RPMI (Mediatech 50-011-PB), containing 10% FBS (JRH Biosciences 12176) and 1% penicillin-streptomycin (Invitrogen 15140). Human head and neck tumor cells (HN5) were cultured in high glucose DMEM (Mediatech 50-013-PB) containing 10% FBS and 1% penicillin-streptomycin. Human colon tumor cells (Colo205) were cultured in RPMI (Mediatech 50-020-PB) containing 10% FBS and 1% penicillin-streptomycin. Human melanoma cancer cells (SK-MEL-28) were cultured in EMEM with nonessential amino acids (Mediatech 50-011-PB) containing 10% FBS, 1% sodium pyruvate (JT Baker 3354-04), and 1% penicillin-streptomycin. Human melanoma cancer cells (A375P F11s) were cultured in RPMI (Mediatech 50-020-PB) containing 10% FBS, 1% sodium pyruvate, and 1% penicillin-streptomycin. Human colon cancer cells (HT-29) were cultured in high glucose DMEM (Mediatech 50-013-PB) containing 10% FBS and 1% penicillin-streptomycin. Human melanoma cancer cells (SK-MEL-3) were cultured in McCoy's 5A (50-025-PB) containing 15% FBS, and 1% penicillin-streptomycin. All cell lines were maintained at 37° C. in a humidified 5% CO2, 95% air incubator. Cells were harvested using trypsin/EDTA (Invitrogen 25200), counted using an haemocytometer, and plated. For 96-well assays (using white full-area NUNC plates cat. #136102), cells were plated in 105 μL at the following densities (cells/well): HN5, 500; Colo205, 500; SK-MEL-28, 500; A375P-F11s, 500; HT-29, 500; SK-MEL-3, 500; and BT474, 3000. For 384-well assays (white full-area NUNC plates, cat. #781080), cells were plated in 48 μL at the following densities (cells/well): HN5, 500; Colo205, 500; SK-MEL-28, 500; A375P-F11s, 500; HT29, 500; SK-MEL-3, 500; and BT474, 2000.
(§2) The next day, compounds were diluted as follow: For 96-well assays, 13.5 μL of compound in DMSO were diluted using nine (9) serial 1:3 dilutions of 4.5 μL in 9 μL of DMSO. Medium (270 μl/well of RPMI with 10% FBS and 1% penicillin-streptomycin) was added to the plates. Aliquots (7 μl) were added to cells in the final assay giving a final DMSO concentration of 0.2%. For 384-well assays, 15 μL of compound in DMSO were diluted using nine (9) serial 1:3 dilutions of 5 μL in 10 μL of DMSO, followed by a further dilution of 5 μL of compound with 95 μL of medium, of which 2 μL were added to cells in the final assay giving a final DMSO concentration of 0.2%. Cells were incubated at 37° C., 5% CO2 for 3 days.
(§3) Total ATP was measured (as a surrogate estimate of cell number) using CellTiter-Glo® reagent (Promega G7571). Briefly, plates were removed from the incubator and allowed to equilibrate to room temperature for 30 minutes. CellTiter-Glo® (25 μL or 55 μL for 384-well or 96-well assays, respectively) reagent was added to each well and plates were shaken on an orbital plate shaker for 2 mins. Plates were incubated without shaking for a further 30 mins and read on an LJL Analyst GT reader in luminometer mode with an integration time of 0.5 seconds per well. Percent inhibition of cell growth was calculated relative to DMSO vehicle-treated control wells. Concentration of compound required to give 50% inhibition of vehicle-treated control cell growth (IC50) was interpolated using a 4-parameter fit for determining IC50 using the following equation: Y=A+((B−A)/(1+((C/X)̂D))) where X=IC50.

Colo205 tumor cells = assay: Method C: Cell Growth Inhibition Assay (CellTiter-Glo), Colo205; type: cell-based; conditions: Homo sapiens, COLO 205, 72 h, 3 days, 4-parameter fit
Experimental: as §1, §2, §3

HN5 tumor cells = assay: Method C: Cell Growth Inhibition Assay (CellTiter-Glo), HN5; type: cell-based; conditions: Homo sapiens, 72 h, 3 days, 4-parameter fit
Experimental: as §1, §2, §3

EGFR = biological target: T1, EGFR (Homo sapiens, UniProt P00533); assay: EGFR substrate phosphorylation assay (HTRF); type: biochemical; conditions: Method (A): Enzyme Mix incubated with compound at 20° C. for 1 hr, reaction started by adding Substrate Mix
T1 construct: made in house; host or cells: baculovirus expression system
Experimental: (§4) Compounds of the present invention were tested for EGFR and ErbB-2 protein tyrosine kinase inhibitory activity in substrate phosphorylation assays using enzymes purified from a baculovirus expression system. Reagent production was conducted essentially as described in Brignola, P. S., et al., (2002) J. Biol. Chem. 277(2):1576-1585.
(§5) The method measures the ability of the isolated enzyme to catalyse the transfer of the gamma-phosphate from ATP onto the tyrosine residue of a biotinylated synthetic peptide referenced “Peptide C” in Brignola, P. S., et al., (2002) J. Biol. Chem. 277(2):1576-1585. The extent of tyrosine phosphorylation was measured using an anti-phosphotyrosine antibody, and quantified by homogenous time-resolved fluorescence (HTRF).
(§6) Reactions were performed in black 384-well polystyrene flat-bottom plates in a final volume of 20 μl. Assays were performed by adding 10 μl of each of the following solutions, Substrate Mix and Enzyme Mix: The Substrate Mix contained 100 mM 3-[N-morpholino]propanesulfonic acid (MOPS) (pH 7.5), 2 mM MnCl2, 20 μM ATP, 0.01% Tween-20, 0.1 mg/mL (BSA), 0.8 uM peptide substrate, and 1 mM dithiothreitol. The Enzyme Mix contained 100 mM MOPS (pH 7.5); 0.01% Tween-20; 0.1 mg/mL BSA, and either 0.8 nM EGFR, 10 nM ErbB2, or 1 nM ErbB4
(§7) During the course of these studies, two separate methods have been used to measure the potency of compounds. In Method A (indicated as “(A)” in the tables below), the Enzyme Mix was added to the compound plates and the plates were incubated at 20° C. for 1 hr. The reactions were then started by adding the Substrate Mix. In Method B (indicated as “(B)” in the tables below), the Substrate Mix was added to the compound plates first, then the reaction was started by adding the Enzyme Mix.
(§8) After initiating the reaction with either method describe above, the reactions were allowed to proceed for 90 minutes at 20° C. The reactions were then terminated by the addition of 20 μL 100 mM EDTA to each well. 40 μL/well of HTRF detection mix were added to the assay plates. The final concentrations of the detection reagents were: 100 mM HEPES (pH7.5), 0.1 mg/mL BSA, 15 nM streptavidin-labeled allophycocyanin (PerkinElmer), and 1 nM europium-labeled anti-phosphotyrosine antibody (PerkinElmer). Assay plates were left unsealed and were counted in a Wallac Multilabel Counter 1420 (PerkinElmer).
(§9) Compounds under analysis were dissolved in dimethylsulfoxide (DMSO) to 1.0 mM and serially diluted 1 to 3 with DMSO through twelve dilutions. 1 μL of each concentration was transferred to the corresponding well of an assay plate. This creates a final compound concentration range from 0.00027 to 47.6 μM.
(§10) The data for dose responses were plotted as % Inhibition calculated with the data reduction formula 100*(1−(U1−C2)/(C1−C2)) versus concentration of compound where U1 is the unknown value, C1 is the average control value obtained for 4.76% DMSO, and C2 is the average control value obtained for 0.035 M EDTA. Data were fitted with a curve described by:
(§11) where Vmax is the upper asymptote, Y2 is the Y intercept, and K is the IC50. The results for each compound were recorded as pIC50s, calculated as follows: […]

ErbB2 = biological target: T2, ErbB2 (Homo sapiens, UniProt P04626); assay: ErbB-2 substrate phosphorylation assay (HTRF); type: biochemical; conditions: Method (A): Enzyme Mix incubated with compound at 20° C. for 1 hr, reaction started by adding Substrate Mix
T2 construct: made in house; host or cells: baculovirus expression system
Experimental: as §4, §5, §6, §7, §8, §9, §10, §11

SK-MEL-28 tumor cells = assay: Method C: Cell Growth Inhibition Assay (CellTiter-Glo), SK-MEL-28; type: cell-based; conditions: Homo sapiens, SK-MEL-28, 72 h, 3 days, 4-parameter fit
Experimental: as §1, §2, §3

T1 sequence (P00533 25-1210): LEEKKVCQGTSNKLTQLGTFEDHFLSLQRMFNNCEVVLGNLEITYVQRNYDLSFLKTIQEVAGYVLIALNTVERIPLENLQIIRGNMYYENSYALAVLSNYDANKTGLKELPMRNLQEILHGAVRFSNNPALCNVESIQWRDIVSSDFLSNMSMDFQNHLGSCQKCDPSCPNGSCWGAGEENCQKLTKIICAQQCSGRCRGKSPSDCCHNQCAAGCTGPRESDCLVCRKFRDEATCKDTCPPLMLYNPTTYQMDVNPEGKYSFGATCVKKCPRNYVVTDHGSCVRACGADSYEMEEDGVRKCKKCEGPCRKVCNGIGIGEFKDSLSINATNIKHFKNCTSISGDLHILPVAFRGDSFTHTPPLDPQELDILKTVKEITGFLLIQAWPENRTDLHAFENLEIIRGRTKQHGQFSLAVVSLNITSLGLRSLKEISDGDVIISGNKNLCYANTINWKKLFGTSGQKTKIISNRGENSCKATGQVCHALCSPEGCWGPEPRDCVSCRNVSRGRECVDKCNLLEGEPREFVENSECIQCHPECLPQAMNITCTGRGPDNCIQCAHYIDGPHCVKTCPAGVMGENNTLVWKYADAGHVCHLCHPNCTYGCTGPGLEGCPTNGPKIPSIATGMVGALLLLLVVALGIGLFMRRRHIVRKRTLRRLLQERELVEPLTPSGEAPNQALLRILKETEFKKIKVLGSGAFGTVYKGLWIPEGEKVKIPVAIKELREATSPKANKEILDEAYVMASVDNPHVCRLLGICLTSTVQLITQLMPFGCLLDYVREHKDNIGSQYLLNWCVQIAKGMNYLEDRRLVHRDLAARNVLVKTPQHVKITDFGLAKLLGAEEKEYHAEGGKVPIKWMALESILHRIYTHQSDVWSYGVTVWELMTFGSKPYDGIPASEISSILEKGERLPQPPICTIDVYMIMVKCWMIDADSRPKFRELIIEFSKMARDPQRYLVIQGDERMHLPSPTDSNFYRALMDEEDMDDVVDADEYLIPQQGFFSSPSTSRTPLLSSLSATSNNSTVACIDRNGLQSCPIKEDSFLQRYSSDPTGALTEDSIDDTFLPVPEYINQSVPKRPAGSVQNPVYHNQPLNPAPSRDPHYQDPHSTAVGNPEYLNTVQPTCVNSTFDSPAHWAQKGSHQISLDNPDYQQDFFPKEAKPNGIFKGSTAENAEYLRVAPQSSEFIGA
T2 sequence (P04626 23-1255): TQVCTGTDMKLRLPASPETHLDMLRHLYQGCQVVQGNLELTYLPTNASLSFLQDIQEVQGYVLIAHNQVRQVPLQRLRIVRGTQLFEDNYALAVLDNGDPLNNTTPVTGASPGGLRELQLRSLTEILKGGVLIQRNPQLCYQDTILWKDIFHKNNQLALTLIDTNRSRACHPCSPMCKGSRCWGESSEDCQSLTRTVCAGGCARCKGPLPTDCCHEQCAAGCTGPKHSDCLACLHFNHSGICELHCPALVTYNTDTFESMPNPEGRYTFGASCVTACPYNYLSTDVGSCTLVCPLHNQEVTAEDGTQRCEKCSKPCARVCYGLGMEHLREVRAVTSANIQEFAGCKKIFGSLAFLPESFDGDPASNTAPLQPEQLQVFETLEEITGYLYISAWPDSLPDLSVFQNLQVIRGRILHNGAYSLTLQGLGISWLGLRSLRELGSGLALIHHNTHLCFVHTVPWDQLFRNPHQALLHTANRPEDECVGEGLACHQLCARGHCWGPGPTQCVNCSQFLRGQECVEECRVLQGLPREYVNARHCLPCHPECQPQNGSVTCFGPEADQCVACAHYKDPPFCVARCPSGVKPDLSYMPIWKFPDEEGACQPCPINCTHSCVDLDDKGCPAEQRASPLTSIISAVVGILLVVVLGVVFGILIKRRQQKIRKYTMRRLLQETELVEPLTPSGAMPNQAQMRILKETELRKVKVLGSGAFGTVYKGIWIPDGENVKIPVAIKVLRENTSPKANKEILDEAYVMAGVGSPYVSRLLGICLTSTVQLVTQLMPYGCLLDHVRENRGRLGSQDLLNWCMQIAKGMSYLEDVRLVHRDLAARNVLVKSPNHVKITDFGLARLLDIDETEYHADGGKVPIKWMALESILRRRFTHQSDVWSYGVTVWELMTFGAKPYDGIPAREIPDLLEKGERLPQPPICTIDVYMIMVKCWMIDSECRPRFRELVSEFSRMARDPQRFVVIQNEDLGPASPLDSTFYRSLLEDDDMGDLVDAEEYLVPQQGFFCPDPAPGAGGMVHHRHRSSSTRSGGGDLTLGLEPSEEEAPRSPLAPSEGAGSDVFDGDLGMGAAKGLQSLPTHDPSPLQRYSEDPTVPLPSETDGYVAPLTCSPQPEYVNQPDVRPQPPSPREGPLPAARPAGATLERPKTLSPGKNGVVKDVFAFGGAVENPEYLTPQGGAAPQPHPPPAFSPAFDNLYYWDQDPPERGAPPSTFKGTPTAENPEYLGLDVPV

Row | Compound | IC50 (BT474 tumor cells) | IC50 (Colo205 tumor cells) | IC50 (HN5 tumor cells) | IC50 (EGFR) | IC50 (ErbB2) | IC50 (SK-MEL-28 tumor cells)
1 | CN(C)CCOc1cccc(Nc2nccc(-c3sc(NCCCN4CCOCC4)nc3-c3cccc(NC(=O)c4c(F)cccc4F)c3)n2)c1 [Example 29, N-[3-(5-{2-[(3-{[2-(Dimethylamino)ethyl]oxy}phenyl)amino]-4-pyrimidinyl}-2-{[3-(4-morpholinyl)propyl]amino}-1,3-thiazol-4-yl)phenyl]-2,6-difluorobenzamide] | < 100 nM | 100 to 1000 nM | < 100 nM | < 100 nM | < 100 nM | > 1000 nM
2 | CN(C)CCOc1cccc(Nc2nccc(-c3sc(N)nc3-c3cccc(C(=O)Nc4c(F)cccc4F)c3)n2)c1 [Example 76, 3-(2-Amino-5-{2-[(3-{[2-(dimethylamino)ethyl]oxy}phenyl)amino]-4-pyrimidinyl}-1,3-thiazol-4-yl)-N-(2,6-difluorophenyl)benzamide] | < 100 nM | 100 to 1000 nM | 100 to 1000 nM | < 100 nM | < 100 nM | 
3 | CN(C)CCOc1cccc(Nc2nccc(-c3scnc3-c3cccc(NC(=O)c4cc(F)ccc4F)c3)n2)c1 [Example 96, N-[3-(5-{2-[(3-{[2-(Dimethylamino)ethyl]oxy}phenyl)amino]-4-pyrimidinyl}-1,3-thiazol-4-yl)phenyl]-2,5-difluorobenzamide] | 100 to 1000 nM | > 1000 nM | < 100 nM | < 100 nM | < 100 nM | > 1000 nM
4 | CCN(CC)CCOc1cccc(Nc2nccc(-c3scnc3-c3cccc(NC(=O)c4cc(F)ccc4F)c3)n2)c1 [Example 97, N-[3-(5-{2-[(3-{[2-(Diethylamino)ethyl]oxy}phenyl)amino]-4-pyrimidinyl}-1,3-thiazol-4-yl)phenyl]-2,5-difluorobenzamide] | 100 to 1000 nM | > 1000 nM | 100 to 1000 nM | < 100 nM | < 100 nM | > 1000 nM
5 | NS(=O)(=O)CCc1cccc(Nc2nccc(-c3scnc3-c3cccc(NC(=O)c4cc(F)ccc4F)c3)n2)c1 [Example 100, N-(3-{5-[2-({3-[2-(Aminosulfonyl)ethyl]phenyl}amino)-4-pyrimidinyl]-1,3-thiazol-4-yl}phenyl)-2,5-difluorobenzamide trifluoroacetate] | < 100 nM | 100 to 1000 nM | < 100 nM | < 100 nM | < 100 nM | 
6 | Cc1nc(-c2cccc(NC(=O)c3c(F)cccc3F)c2)c(-c2ccnc(Nc3cccc(OCCN(C)C)c3)n2)s1 [Example 102, N-[3-(5-{2-[(3-{[2-(Dimethylamino)ethyl]oxy}phenyl)amino]-4-pyrimidinyl}-2-methyl-1,3-thiazol-4-yl)phenyl]-2,6-difluorobenzamide] | 100 to 1000 nM | > 1000 nM | 100 to 1000 nM | < 100 nM | < 100 nM | 
7 | Cc1cccc(C(=O)Nc2cccc(-c3nc(C)sc3-c3ccnc(Nc4ccc(OCCN(C)C)c(Cl)c4)n3)c2)c1 [Example 135, N-[3-(5-{2-[(3-Chloro-4-{[2-(dimethylamino)ethyl]oxy}phenyl)amino]-4-pyrimidinyl}-2-methyl-1,3-thiazol-4-yl)phenyl]-3-methylbenzamide] | 100 to 1000 nM | > 1000 nM |  | < 100 nM | < 100 nM | > 1000 nM
8 | Cc1nc(-c2cccc(NC(=O)c3cccc(Cl)c3)c2)c(-c2ccnc(Nc3ccc(OCCN(C)C)c(Cl)c3)n2)s1 [Example 136, 3-Chloro-N-[3-(5-{2-[(3-chloro-4-{[2-(dimethylamino)ethyl]oxy}phenyl)amino]-4-pyrimidinyl}-2-methyl-1,3-thiazol-4-yl)phenyl]benzamide] | 100 to 1000 nM | > 1000 nM |  | < 100 nM | < 100 nM | > 1000 nM
9 | Cc1nc(-c2cccc(NC(=O)c3cccnc3F)c2)c(-c2ccnc(Nc3ccc4c(c3)CN(C)CC4)n2)s1 [Example 137, 2-Fluoro-N-[3-(2-methyl-5-{2-[(2-methyl-1,2,3,4-tetrahydro-7-isoquinolinyl)amino]-4-pyrimidinyl}-1,3-thiazol-4-yl)phenyl]-3-pyridinecarboxamide trifluoroacetate] | 100 to 1000 nM | > 1000 nM |  | < 100 nM | < 100 nM | > 1000 nM
10 | CN(C)CCOc1ccc(Nc2nccc(-c3sc(-c4ccc(O)cc4)nc3-c3cccc(NC(=O)c4c(F)cccc4F)c3)n2)cc1Cl [Example 139, N-{3-[5-{2-[(3-Chloro-4-{[2-(dimethylamino)ethyl]oxy}phenyl)amino]-4-pyrimidinyl}-2-(4-hydroxyphenyl)-1,3-thiazol-4-yl]phenyl}-2,6-difluorobenzamide] | 100 to 1000 nM | 100 to 1000 nM | 100 to 1000 nM | < 100 nM | < 100 nM | 
